Among the data in patent US7718808B2, “Thiazole derivatives” (Kyowa Hakko Kirin Co., Ltd., priority 2003, dated 2010) are melting point values, retold here.

Structures are written as SMILES.

Broadly, the melting point is the temperature, or range, at which the solid turns liquid. Compound `Cc1ccc(C(=O)Nc2nc(-c3ccco3)c(C(=O)C3CCOCC3)s2)o1` [Compound 512, N-[4-(2-Furyl)-5-(tetrahydropyran-4-ylcarbonyl)thiazol-2-yl]-5-methylfuran-2-carboxamide] showed a melting point of 209 to 212 °C.
In turn, `O=C(Nc1nc(-c2ccco2)c(C(=O)C2CCOCC2)s1)c1ccoc1` [Compound 516, N-[4-(2-Furyl)-5-(tetrahydropyran-4-ylcarbonyl)thiazol-2-yl]furan-3-carboxamide] had a melting point of 236 to 238 °C.
Regarding `O=C(Nc1nc(-c2ccco2)c(C(=O)C2CCOCC2)s1)c1cccs1` [Compound 517, N-[4-(2-Furyl)-5-(tetrahydropyran-4-ylcarbonyl)thiazol-2-yl]thiophene-2-carboxamide], the melting point was 231 to 232 °C.
Take `O=C(Nc1nc(-c2ccco2)c(C(=O)C2CCOCC2)s1)c1ccsc1` [Compound 518, N-[4-(2-Furyl)-5-(tetrahydropyran-4-ylcarbonyl)thiazol-2-yl]thiophene-3-carboxamide]: the melting point lay in the range of 227 to 229 °C.
Compound `Cn1cc(C(=O)Nc2nc(-c3ccco3)c(C(=O)C3CCOCC3)s2)cn1` [Compound 519, N-[4-(2-Furyl)-5-(tetrahydropyran-4-ylcarbonyl)thiazol-2-yl]-1-methylpyrazole-4-carboxamide] had a melting point of 243 to 247 °C.
Under `CCn1cc(C(=O)Nc2nc(-c3ccco3)c(C(=O)C3CCOCC3)s2)cn1` [Compound 520, 1-Ethyl-N-[4-(2-furyl)-5-(tetrahydropyran-4-ylcarbonyl)thiazol-2-yl]pyrazole-4-carboxamide] stands 170 to 174 °C; under `O=C(Nc1nc(-c2ccco2)c(C(=O)C2CCOCC2)s1)c1cnn(-c2ccccc2)c1` [Compound 521, N-[4-(2-Furyl)-5-(tetrahydropyran-4-ylcarbonyl)thiazol-2-yl]-1-phenylpyrazole-4-carboxamide], 217 to 220 °C.
In turn, `O=C(c1sc(NC(=O)C2CCCO2)nc1-c1ccco1)C1CCOCC1` (centres unmarked) [Compound 523, N-[4-(2-Furyl)-5-(tetrahydropyran-4-ylcarbonyl)thiazol-2-yl]tetrahydrofuran-2-carboxamide] gave a melting point of 115 to 117 °C.
The value for `O=C(Nc1nc(-c2ccco2)c(C(=O)C2CCOCC2)s1)C1CCOC1` (centres unmarked) [Compound 524, N-[4-(2-Furyl)-5-(tetrahydropyran-4-ylcarbonyl)thiazol-2-yl]tetrahydrofuran-3-carboxamide] was 164 to 166 °C.
The compound `O=C(CC1CCOCC1)Nc1nc(-c2ccco2)c(C(=O)C2CCOCC2)s1` [Compound 525, N-[4-(2-Furyl)-5-(tetrahydropyran-4-ylcarbonyl)thiazol-2-yl]-2-(tetrahydropyran-4-yl)acetamide] yielded a melting point of 206 to 209 °C.
For the compound `O=C(Cc1ccccc1)Nc1nc(-c2ccco2)c(C(=O)C2CCOCC2)s1` [Compound 526, N-[4-(2-Furyl)-5-(tetrahydropyran-4-ylcarbonyl)thiazol-2-yl]-2-phenylacetamide], the melting point was 140 to 142 °C.
`O=C(CCc1ccccc1)Nc1nc(-c2ccco2)c(C(=O)C2CCOCC2)s1` [Compound 527, N-[4-(2-Furyl)-5-(tetrahydropyran-4-ylcarbonyl)thiazol-2-yl]-3-phenylpropanamide] showed a melting point of 161 to 164 °C.
The value for `O=C(C=Cc1ccccc1)Nc1nc(-c2ccco2)c(C(=O)C2CCOCC2)s1` [Compound 528, N-[4-(2-Furyl)-5-(tetrahydropyran-4-ylcarbonyl)thiazol-2-yl]-3-phenylacrylamide] was 253 to 256 °C.
In the case of `O=C(COc1ccccc1)Nc1nc(-c2ccco2)c(C(=O)C2CCOCC2)s1` [Compound 529, N-[4-(2-Furyl)-5-(tetrahydropyran-4-ylcarbonyl)thiazol-2-yl]-2-phenoxyacetamide], the melting point fell in the range of 148 to 150 °C.
The value for `COCC(=O)Nc1nc(-c2ccco2)c(C(=O)C2CCOCC2)s1` [Compound 530, N-[4-(2-Furyl)-5-(tetrahydropyran-4-ylcarbonyl)thiazol-2-yl]-2-methoxyacetamide] was 148 to 149 °C.
The compound `CCOCC(=O)Nc1nc(-c2ccco2)c(C(=O)C2CCOCC2)s1` [Compound 532, 2-Ethoxy-N-[4-(2-furyl)-5-(tetrahydropyran-4-ylcarbonyl)thiazol-2-yl]acetamide] displayed a melting point of 121 to 126 °C.
`CN(C)CC(=O)Nc1nc(-c2ccco2)c(C(=O)C2CCOCC2)s1` [Compound 533, 2-(Dimethylamino)-N-[4-(2-furyl)-5-(tetrahydropyran-4-ylcarbonyl)thiazol-2-yl]acetamide]: the melting point was in the range of 129 to 130 °C.
Take `COCCN(C)CC(=O)Nc1nc(-c2ccco2)c(C(=O)C2CCOCC2)s1` [Compound 534, N-[4-(2-Furyl)-5-(tetrahydropyran-4-ylcarbonyl)thiazol-2-yl]-2-[N-(2-methoxyethyl)-N-methylamino]acetamide]: the melting point lay within 103 to 105 °C.
In turn, `O=C(CN1CCCC1)Nc1nc(-c2ccco2)c(C(=O)C2CCOCC2)s1` [Compound 536, N-[4-(2-Furyl)-5-(tetrahydropyran-4-ylcarbonyl)thiazol-2-yl]-2-(1-pyrrolidinyl)acetamide] registered a melting point of 115 to 117 °C.
In turn, `COC[C@H]1CCCN1CC(=O)Nc1nc(-c2ccco2)c(C(=O)C2CCOCC2)s1` [Compound 537, N-[4-(2-Furyl)-5-(tetrahydropyran-4-ylcarbonyl)thiazol-2-yl]-2-[(2R)-2-(methoxymethyl)pyrrolidin-1-yl]acetamide] displayed a melting point of 103 to 104 °C.
The value for `O=C(CN1CCCCC1)Nc1nc(-c2ccco2)c(C(=O)C2CCOCC2)s1` [Compound 542, N-[4-(2-Furyl)-5-(tetrahydropyran-4-ylcarbonyl)thiazol-2-yl]-2-piperidinoacetamide] was 146 to 147 °C; that for `O=C(CN1CCC(O)CC1)Nc1nc(-c2ccco2)c(C(=O)C2CCOCC2)s1` [Compound 543, N-[4-(2-Furyl)-5-(tetrahydropyran-4-ylcarbonyl)thiazol-2-yl]-2-(4-hydroxypiperidino)acetamide] was 178 to 180 °C; that for `COC1CCN(CC(=O)Nc2nc(-c3ccco3)c(C(=O)C3CCOCC3)s2)CC1` [Compound 545, N-[4-(2-Furyl)-5-(tetrahydropyran-4-ylcarbonyl)thiazol-2-yl]-2-(4-methoxypiperidino)acetamide] was 109 to 111 °C.
As for `CC1(O)CCN(CC(=O)Nc2nc(-c3ccco3)c(C(=O)C3CCOCC3)s2)CC1` [Compound 546, N-[4-(2-Furyl)-5-(tetrahydropyran-4-ylcarbonyl)thiazol-2-yl]-2-(4-hydroxy-4-methylpiperidino)acetamide], the melting point was in the range of 151 to 153 °C.
`O=C(CN1CCC(N2CCCC2)CC1)Nc1nc(-c2ccco2)c(C(=O)C2CCOCC2)s1` [Compound 551, N-[4-(2-Furyl)-5-(tetrahydropyran-4-ylcarbonyl)thiazol-2-yl]-2-[4-(1-pyrrolidinyl)piperidino]acetamide] gave a melting point of 183 to 184 °C.
For the compound `O=C(CN1CCC(N2CCCCC2)CC1)Nc1nc(-c2ccco2)c(C(=O)C2CCOCC2)s1` [Compound 552, N-[4-(2-Furyl)-5-(tetrahydropyran-4-ylcarbonyl)thiazol-2-yl]-2-(4-piperidinopiperidino)acetamide], the melting point lay within 177 to 179 °C.
